Converted amounts (≈) assume the structure as drawn.
How the values were obtained:
S. aureus (ATCC 29213) = assay: Bacterial assay: MIC against S. aureus; type: cell-based, Staphylococcus aureus; details: Staphylococcus aureus, ATCC29213, read-out: minimal inhibitory concentration (MIC)
S. pyogenes (ATCC 51339) = assay: Bacterial assay: MIC against S. pyogenes; type: cell-based, Streptococcus pyogenes; details: Streptococcus pyogenes, ATCC51339, read-out: minimal inhibitory concentration (MIC)

`CCNC(=O)Nc1nc2cc(-c3ccc(C(C)(C)O)nc3)c(O)c(CN3CCOCC3)c2s1` [Compound 44, 1-ethyl-3-[6-hydroxy-5-[6-(1-hydroxy-1-methyl-ethyl)-3-pyridyl]-7-(morpholinomethyl)-1,3-benzothiazol-2-yl]urea] was tested, and the MIC (S. aureus (ATCC 29213)) was 16 µg/mL (≈ 33.9 µM) and the MIC (S. pyogenes (ATCC 51339)) was 16 µg/mL (≈ 33.9 µM).

`CCNC(=O)Nc1nc2cc(-c3cncc(C(C)O)c3)cc(-c3ccccn3)c2s1` (stereo not drawn) [Compound 197, 1-ethyl-3-[5-[5-(1-hydroxyethyl)-3-pyridyl]-7-(2-pyridyl)-1,3-benzothiazol-2-yl]urea] was tested, and the MIC (S. aureus (ATCC 29213)) was no more than 1 µg/mL and the MIC (S. pyogenes (ATCC 51339)) was no more than 1 µg/mL.

Compound `CCNC(=O)Nc1nc2cc(-c3ccc(C(O)c4cccnc4)nc3)c(F)cc2s1` (stereo not drawn) [Compound 4, 1-ethyl-3-[6-fluoro-5-[6-[hydroxy(3-pyridyl)methyl]-3-pyridyl]-1,3-benzothiazol-2-yl]urea] has an MIC (S. aureus (ATCC 29213)) of no more than 1 µg/mL and an MIC (S. pyogenes (ATCC 51339)) of no more than 1 µg/mL.

Compound `CCNC(=O)Nc1nc2cc(-c3cnc(C(C)(C)O)cn3)cc(-c3ccccn3)c2s1` [Compound 49, 1-ethyl-3-[5-[5-(1-hydroxy-1-methyl-ethyl)pyrazin-2-yl]-7-(2-pyridyl)-1,3-benzothiazol-2-yl]urea] has an MIC (S. aureus (ATCC 29213)) of no more than 1 µg/mL and an MIC (S. pyogenes (ATCC 51339)) of no more than 1 µg/mL.

Compound `CCNC(=O)Nc1nc2cc(-c3cnc(C(C)(C)O)nc3)cc(-c3ccc(CC(=O)O)cn3)c2s1` [Compound 46, 2-[6-[2-(ethylcarbamoylamino)-5-[2-(1-hydroxy-1-methyl-ethyl)pyrimidin-5-yl]-1,3-benzothiazol-7-yl]-3-pyridyl]acetic acid] has an MIC (S. aureus (ATCC 29213)) of 4 µg/mL (≈ 8.12 µM) and an MIC (S. pyogenes (ATCC 51339)) of 4 µg/mL (≈ 8.12 µM).

With `CCNC(=O)Nc1nc2cc(-c3cnc(C(C)(C)O)nc3)cc(-c3ccc(CN4CCOCC4)cn3)c2s1` [Compound 25, 1-ethyl-3-[5-[2-(1-hydroxy-1-methyl-ethyl)pyrimidin-5-yl]-7-[5-(morpholinomethyl)-2-pyridyl]-1,3-benzothiazol-2-yl]urea] the MIC (S. aureus (ATCC 29213)) was no more than 1 µg/mL and the MIC (S. pyogenes (ATCC 51339)) was no more than 1 µg/mL.

Work on `CCNC(=O)Nc1nc2cc(-c3cnc(C(C)O)nc3)cc(-c3cc(CN4CC[C@@H](O)C4)ccn3)c2s1` (stereo partly drawn) [Compound 77, 1-ethyl-3-[5-[2-(1-hydroxyethyl)pyrimidin-5-yl]-7-[4-[[(3R)-3-hydroxypyrrolidin-1-yl]methyl]-2-pyridyl]-1,3-benzothiazol-2-yl]urea] yielded an MIC (S. aureus (ATCC 29213)) of no more than 1 µg/mL and an MIC (S. pyogenes (ATCC 51339)) of no more than 1 µg/mL.

In the case of `CCNC(=O)Nc1nc2cc(-c3cnc(C(C)(C)O)nc3)c(OCc3ccc(OC)c(OC)c3)cc2s1` [Compound 192, 1-[6-[(3,4-dimethoxyphenyl)methoxy]-5-[2-(1-hydroxy-1-methyl-ethyl)pyrimidin-5-yl]-1,3-benzothiazol-2-yl]-3-ethyl-urea], the MIC (S. aureus (ATCC 29213)) is reported as no more than 1 µg/mL and the MIC (S. pyogenes (ATCC 51339)) is reported as no more than 1 µg/mL.

`CCNC(=O)Nc1nc2cc(-c3cnc(C(C)O)nc3)cc(-c3cc(O)ccn3)c2s1` (stereo not drawn) [Compound 90, 1-ethyl-3-[5-[2-(1-hydroxyethyl)pyrimidin-5-yl]-7-(4-hydroxy-2-pyridyl)-1,3-benzothiazol-2-yl]urea] was tested, and the MIC (S. aureus (ATCC 29213)) was 16 µg/mL (≈ 36.7 µM) and the MIC (S. pyogenes (ATCC 51339)) was 2 µg/mL (≈ 4.58 µM).

Compound `CCNC(=O)Nc1nc2cc(-c3cnc(C(C)(C)O)nc3)cc(-c3nccc(N4CCC(C)(C(=O)O)CC4)n3)c2s1` [Compound 97, 1-[2-[2-(ethylcarbamoylamino)-5-[2-(1-hydroxy-1-methyl-ethyl)pyrimidin-5-yl]-1,3-benzothiazol-7-yl]pyrimidin-4-yl]-4-methyl-piperidine-4-carboxylic acid] has an MIC (S. aureus (ATCC 29213)) of 4 µg/mL (≈ 6.94 µM) and an MIC (S. pyogenes (ATCC 51339)) of no more than 1 µg/mL.

`CCNC(=O)Nc1nc2cc(-c3cnc(C(C)O)nc3)cc(-c3ncc(F)c(N4CCOCC4)n3)c2s1` (stereo not drawn) [Compound 106, 1-ethyl-3-[7-(5-fluoro-4-morpholino-pyrimidin-2-yl)-5-[2-(1-hydroxyethyl)pyrimidin-5-yl]-1,3-benzothiazol-2-yl]urea] gave an MIC (S. aureus (ATCC 29213)) of no more than 1 µg/mL and an MIC (S. pyogenes (ATCC 51339)) of no more than 1 µg/mL.

In the case of `CCNC(=O)Nc1nc2cc(-c3cnc(C(C)(C)O)nc3)cc(-c3nccc(NCCOC)n3)c2s1` [Compound 78, 1-ethyl-3-[5-[2-(1-hydroxy-1-methyl-ethyl)pyrimidin-5-yl]-7-[4-(2-methoxyethylamino)pyrimidin-2-yl]-1,3-benzothiazol-2-yl]urea], the MIC (S. aureus (ATCC 29213)) is reported as no more than 1 µg/mL and the MIC (S. pyogenes (ATCC 51339)) is reported as no more than 1 µg/mL.

Source: US20170260178A1 (SPERO GYRASE, INC., priority 2012, published 2017)
